Reference: patent publication US9229008B2, “IL-8 level as a determinant of responsivity of a cancer to treatment” (Merck Sharp & Dohme Corp., priority 2008, dated 2016)

Test system: IL-8
Assay: IL-8 ELISA of growth media of A2058 melanoma cells
Assay type: cell-based, human
Conditions: A2058 B-RAF mutant melanoma cells, 8 hours exposure; DMSO control 21024
Method: Experiments were also performed wherein A2058 B-RAF mutant melanoma cells were treated with ERK inhibitor #1 (structure set forth herein), ERK inhibitor #2 (structure set forth herein), the PD MEK inhibitor
[drawing 23] or DMSO as a negative-control, for 8 hours.
These experiments were performed using IL-8 ELISAs from R&D Systems (Minneapolis, Minn.). Approximately 1×10^6 A2058 cells were plated onto 10 cm dishes containing 10 ml of growth media. The following day, compound was added and allowed to incubate for 8 hours. The media was removed from the plates, diluted 32× and used in the ELISA.

| SMILES | IL-8 levels in growth media |
| --- | --- |
| O=C(NOC[C@H](O)CO)c1ccc(F)c(F)c1Nc1ccc(F)cc1F [PD] | 2080 pg/mL |
| Cn1cnc2c(F)c(Nc3ccc(Br)cc3Cl)c(C(=O)NOCCO)cc21 [AR] | 1632 pg/mL |
